Columns and labels:
Format in all cases: cell-based
3T3 cells = experiment: MTT cell proliferation assay, 3T3 cells; conditions: Mus musculus, NIH3T3; 3T3 fibroblast cells; incubation approximately 64-72 hours
Procedure: (§1) The MTT cell proliferation assay was used to study the cytotoxic properties of the compounds. The assay was performed according to the method described by Roche Molecular Biochemicals, with minor modifications. The assay is based on the cleavage of the tetrazolium salt, MTT, in the presence of an electron-coupling reagent. The water-insoluble formazan salt produced must be solubilized in an additional step. Cells grown in a 96-well tissue culture plate were incubated with the MTT solution for approximately 4 hours. After this incubation period, a water-insoluble formazan dye formed. After solubilization, the formazan dye was quantitated using a scanning multi-well spectrophotometer (ELISA reader). […] The cells were seeded at 5,000-10,000 cells in each well of 96-well plate in 100 μL of fresh culture medium and were allowed to attach overnight. The stock solutions of the compounds were diluted in 100 μL cell culture medium to obtain eight concentrations of each test compound, ranging from 1 nM to 30 μM. […] All optical densities were measured at 490 nm using a Vmax Kinetic Microplate Reader (Molecular Devices). In most cases, the assay was performed in duplicate and the results were presented as a mean percent inhibition to the negative control±SE. The following formula was used to calculate the percent of inhibition. Inhibition (%)=(1−(ODo/OD))×100.
(§2) The compounds were tested against MS751, Z138 and 3T3 cells. The MS751 cell line is derived from a metastasis to lymph node of human cervix from a patient diagnosed with squameous cell carcinoma of the cervix. The […] cell line is a mature B-cell acute lymphoblastic leukemia cell line derived from a patient with chronic lymphocytic leukemia. 3T3 cells are standard fibroblast cells; they were originally isolated from Swiss mouse embryo tissue.

Z138 cells = experiment: MTT cell proliferation assay, Z138 cells; conditions: Homo sapiens, Z-138, incubation approximately 64-72 hours
Procedure: as §1, §2

MS751 cells = experiment: MTT cell proliferation assay, MS751 cells; conditions: Homo sapiens, incubation approximately 64-72 hours
Procedure: as §1, §2

Row | SMILES | IC50 (3T3 cells) | IC50 (Z138 cells) | IC50 (MS751 cells)
1 | CC(=O)c1ccc(-c2ccc(OCCNC(=O)/C=C/c3ccc(N)nc3)c(Cl)c2)s1 [Compound 308, (E)-N-(2-(4-(5-acetylthiophen-2-yl)-2-chlorophenoxy)ethyl)-3-(6-aminopyridin-3-yl) acrylamide] | > 10 µM | 0.1 to 5 µM | 0.1 to 5 µM
2 | CC(C)(CNC(=O)/C=C/c1ccc(N)nc1)Oc1cc(Cl)cc(-c2ccc(C(=O)N3CCOCC3)cc2)c1 [Compound 347, (E)-3-(6-aminopyridin-3-yl)-N-(2-(5-chloro-4′-(morpholine-4-carbonyl)biphenyl-3-yloxy)-2-methylpropyl)acrylamide] | > 10 µM | < 0.1 µM | 0.1 to 5 µM
3 | CC(=O)c1ccc(-c2ccccc2OCCNC(=O)/C=C/c2cccnc2)s1 [Compound 312, (E)-N-(2-(2-(5-acetylthiophen-2-yl)phenoxy)ethyl)-3-(pyridin-3-yl)acrylamide] | 0.1 to 5 µM | 0.1 to 5 µM | 0.1 to 5 µM
4 | Nc1ccc(/C=C/C(=O)NCCOc2ccc(-c3ccc(C(=O)N4CCOCC4)nc3)cc2Cl)cn1 [Compound 321, (E)-3-(6-aminopyridin-3-yl)-N-(2-(2-chloro-4-(6-(morpholine-4-carbonyl)pyridin-3-yl)phenoxy)ethyl)acrylamide] | > 10 µM | < 0.1 µM | < 0.1 µM
5 | Cc1cc(-c2ccc(OCCNC(=O)/C=C/c3ccc(N)nc3)c(Cl)c2)ccc1C(=O)N1CCOCC1 [Compound 314, (E)-3-(6-aminopyridin-3-yl)-N-(2-(3-chloro-3′-methyl-4′-(morpholine-4-carbonyl)biphenyl-4-yloxy)ethyl)acrylamide] | 0.1 to 5 µM | < 0.1 µM | < 0.1 µM
6 | CC1(C)COCCN1C(=O)c1ccc(-c2ccc(OCCNC(=O)/C=C/c3ccc(N)nc3)c(Cl)c2)cc1 [Compound 335, (E)-3-(6-aminopyridin-3-yl)-N-(2-(3-chloro-4′-(3,3-dimethylmorpholine-4-carbonyl)biphenyl-4-yloxy)ethyl)acrylamide] | 0.1 to 5 µM | < 0.1 µM | < 0.1 µM
7 | Nc1ccc(/C=C/C(=O)NCCOc2ccc(-c3ccc(C(=O)N4CCC(F)(F)CC4)cn3)cc2C(F)(F)F)cn1 [Compound 355, (E)-3-(6-aminopyridin-3-yl)-N-(2-(4-(5-(4,4-difluoropiperidine-1-carbonyl)pyridin-2-yl)-2-(trifluoromethyl)phenoxy)ethyl)acrylamide] | 0.1 to 5 µM | < 0.1 µM | < 0.1 µM
8 | CC(=O)c1ccc(-c2ccc(OCCNC(=O)/C=C/c3ccc(N)nc3)c(Cl)n2)s1 [Compound 330, (E)-N-(2-(6-(5-acetylthiophen-2-yl)-2-chloropyridin-3-yloxy)ethyl)-3-(6-aminopyridin-3-yl)acrylamide] | > 10 µM | 0.1 to 5 µM | 0.1 to 5 µM
9 | Nc1ccc(/C=C/C(=O)NCCOc2ccc(-c3ccc(C(=O)N4CCOCC4)cc3)cc2Cl)cn1 [Compound 316, (E)-3-(6-aminopyridin-3-yl)-N-(2-(3-chloro-4′-(morpholine-4-carbonyl)biphenyl-4-yloxy)ethyl)acrylamide] | 0.1 to 5 µM | < 0.1 µM | < 0.1 µM
10 | CC(=O)c1ccc(-c2ccc(NCCNC(=O)/C=C/c3cccnc3)c(Cl)c2)s1 [Compound 322, (E)-N-(2-(4-(5-acetylthiophen-2-yl)-2-chlorophenylamino)ethyl)-3-(pyridin-3-yl)acrylamide] | > 10 µM | 0.1 to 5 µM | 0.1 to 5 µM
11 | [2H]C([2H])(CNC(=O)/C=C/c1ccc(N)nc1)Oc1ccc(-c2ccc(C(=O)N3CCOCC3)cc2)cc1Cl [Compound 342, (E)-3-(6-aminopyridin-3-yl)-N-(2,2-dideutero-2-(3-chloro-4′-(morpholine-4-carbonyl)biphenyl-4-yloxy)ethyl)acrylamide] | 0.1 to 5 µM | < 0.1 µM | < 0.1 µM
12 | Nc1ccc(/C=C/C(=O)NCCCOc2ccc(-c3ccc(C(=O)N4CC(F)(F)C4)cc3)cc2Cl)cn1 [Compound 336, (E)-3-(6-aminopyridin-3-yl)-N-(3-(3-chloro-4′-(3,3-difluoroazetidine-1-carbonyl)biphenyl-4-yloxy)propyl)acrylamide] | 0.1 to 5 µM | < 0.1 µM | < 0.1 µM
13 | CC(=O)c1ccc(-c2ccc(OCCNC(=O)/C=C/c3cccnc3Cl)c(Cl)c2)s1 [Compound 304, (E)-N-(2-(4-(5-acetylthiophen-2-yl)-2-chlorophenoxy)ethyl)-3-(2-chloropyridin-3-yl) acrylamide] | > 10 µM | > 10 µM | 5 to 10 µM
14 | Nc1ccc(/C=C/C(=O)NCCOc2cc(Cl)cc(-c3ccc(C(=O)N4CCOCC4)cc3)c2)cn1 [Compound 344, (E)-3-(6-aminopyridin-3-yl)-N-(2-(5-chloro-4′-(morpholine-4-carbonyl)biphenyl-3-yloxy)ethyl)acrylamide] | 0.1 to 5 µM | < 0.1 µM | < 0.1 µM
15 | CC(=O)c1ccc(-c2ccc(OCCNC(=O)/C=C/c3c(C)noc3C)c(Cl)c2)s1 [Compound 307, (E)-N-(2-(4-(5-acetylthiophen-2-yl)-2-chlorophenoxy)ethyl)-3-(3,5-dimethylisoxazol-4-yl)acrylamide] | > 10 µM | > 10 µM | > 10 µM
16 | Nc1ccc(/C=C/C(=O)NCC(F)(F)COc2ccc(-c3ccc(C(=O)N4CCOCC4)cc3)cc2Cl)cn1 [Compound 349, (E)-3-(6-aminopyridin-3-yl)-N-(3-(3-chloro-4′-(morpholine-4-carbonyl)biphenyl-4-yloxy)-2,2-difluoropropyl)acrylamide] | 0.1 to 5 µM | < 0.1 µM | < 0.1 µM
17 | [2H]C([2H])(CNC(=O)/C=C/c1ccc(N)nc1)Oc1ccc(F)c(-c2ccc(C(=O)N3CCOCC3)cc2)c1 [Compound 343, (E)-3-(6-aminopyridin-3-yl)-N-(2,2-dideutero-2-(6-fluoro-4′-(morpholine-4-carbonyl)biphenyl-3-yloxy)ethyl)acrylamide] | > 10 µM | 0.1 to 5 µM | 0.1 to 5 µM
18 | Nc1ccc(/C=C/C(=O)NCCOc2cc(Cl)cc(-c3ccc(C(=O)N4CC(F)(F)C4)cc3)c2)cn1 [Compound 332, (E)-3-(6-aminopyridin-3-yl)-N-(2-(5-chloro-4′-(3,3-difluoroazetidine-1-carbonyl)biphenyl-3-yloxy)ethyl)acrylamide] | 0.1 to 5 µM | < 0.1 µM | < 0.1 µM
19 | CC(=O)c1ccc(-c2ccc(OCCNC(=O)C#Cc3cccnc3)c(Cl)c2)s1 [Compound 309, N-(2-(4-(5-acetylthiophen-2-yl)-2-chlorophenoxy)ethyl)-3-(pyridin-3-yl)propiolamide] | > 10 µM | > 10 µM | > 10 µM
20 | Nc1ccc(/C=C/C(=O)NCCOc2ccc(-c3cnc(C(=O)N4CCOCC4)nc3)cc2Cl)cn1 [Compound 328, (E)-3-(6-aminopyridin-3-yl)-N-(2-(2-chloro-4-(2-(morpholine-4-carbonyl)pyrimidin-5-yl)phenoxy)ethyl)acrylamide] | > 10 µM | 0.1 to 5 µM | 0.1 to 5 µM
21 | CC(=O)c1ccc(-c2ccc(OCCNC(=O)/C=C\c3cccnc3)c(Cl)c2)s1 [Compound 327, (Z)—N-(2-(4-(5-acetylthiophen-2-yl)-2-chlorophenoxy)ethyl)-3-(pyridin-3-yl)acrylamide] | > 10 µM | 0.1 to 5 µM | 5 to 10 µM
22 | Nc1ccc(/C=C/C(=O)NCCOc2ccc(-c3ccc(C(=O)N4CCCCC4)cc3)cc2Cl)cn1 [Compound 329, (E)-3-(6-aminopyridin-3-yl)-N-(2-(3-chloro-4′-(piperidine-1-carbonyl)biphenyl-4-yloxy)ethyl)acrylamide] | > 10 µM | < 0.1 µM | < 0.1 µM
23 | CC(C)(CNC(=O)/C=C/c1ccc(N)nc1)COc1ccc(-c2ccc(C(=O)N3CCOCC3)cc2)cc1Cl [Compound 350, (E)-3-(6-Aminopyridin-3-yl)-N-(3-((3-chloro-4′-(morpholine-4-carbonyl)-[1,1′-biphenyl]-4-yl)oxy)-2,2-dimethylpropyl)acrylamide] | 0.1 to 5 µM | < 0.1 µM | 0.1 to 5 µM
24 | Nc1ccc(CNC(=O)/C=C/COc2ccc(-c3ccc(C(=O)N4CCC(F)(F)CC4)cn3)cc2C(F)(F)F)cn1 [Compound 353, (E)-N-((6-aminopyridin-3-yl)methyl)-4-(4-(5-(4,4-difluoropiperidine-1-carbonyl)pyridin-2-yl)-2-(trifluoromethyl)phenoxy)but-2-enamide] | > 10 µM | 0.1 to 5 µM | 0.1 to 5 µM
25 | Nc1ccc(CNC(=O)/C=C\COc2ccc(-c3ccc(C(=O)N4CCC(F)(F)CC4)cn3)cc2C(F)(F)F)cn1 [Compound 354, (Z)—N-((6-aminopyridin-3-yl)methyl)-4-(4-(5-(4,4-difluoropiperidine-1-carbonyl)pyridin-2-yl)-2-(trifluoromethyl)phenoxy)but-2-enamide] | > 10 µM | > 10 µM | > 10 µM

— patent US9994558B2, “Multicyclic compounds and methods of using same” (Karyopharm Therapeutics Inc., priority 2013, dated 2018)
